Molecules are shown by their SMILES.

The test system of experiment [1] is LTB4 production by calcium ionophore-stimulated murine blood. Kind of experiment: LTB4 production by calcium ionophore-stimulated murine blood for LTA4H inhibitor activity. Particulars: diluted CD-1 mouse whole blood, calcium ionophore A23187, LTB4 by enzyme-linked immunoassay. Type of experiment: cell-based, CD-1 mice. Here is the method: LTB4 Production by Calcium Ionophore-Stimulated Murine Blood for LTA4H Inhibitor Activity
CD-1 mice were sacrificed, and blood was collected in heparin-containing syringes by cardiac puncture. The blood was diluted 1:15 with RPMI-1640 medium, and 200-μL aliquots of the diluted blood were added to wells of a 96-well microtiter plate. LTA4H inhibitor test compounds were prepared at different concentrations in RPMI-1640 medium containing […], and 20 μL of each test solution was added to a well containing diluted whole blood (final DMSO concentration of 0.1%). After the microtiter plate contents were incubated for 15 min at 37° C. in a humidified incubator, calcium ionophore A23187 (Sigma Chemical Co., St. Louis, Mo.) was added to each sample well (final concentration=20 ng/mL). The incubation was continued under the same conditions for an additional 10 min to allow LTB4 formation. The reaction was terminated by centrifugation (833×g, 10 min at 4° C.), and supernatants were analyzed for LTB4 by a commercially available enzyme-linked immunoassay (Cayman Chemical Co.) according to the manufacturer's instructions. Positive controls, under essentially identical conditions but without addition of an inhibitor compound, and negative unstimulated controls, containing all assay components except calcium ionophore, were routinely run in each experiment. IC50 values were determined by fitting the activity data at different compound concentrations to a 4-parameter equation using the Grafit program (Erithacus software).

The target in experiment [2] is T1, recombinant human LTA4 hydrolase (rhLTA4H) (Homo sapiens, UniProt P09960).
T1 construct: made in house; host or cells: Spodoptera frugiperda (Sf-9) cells, baculovirus (pFastBac1)
T1 sequence (P09960 1-611): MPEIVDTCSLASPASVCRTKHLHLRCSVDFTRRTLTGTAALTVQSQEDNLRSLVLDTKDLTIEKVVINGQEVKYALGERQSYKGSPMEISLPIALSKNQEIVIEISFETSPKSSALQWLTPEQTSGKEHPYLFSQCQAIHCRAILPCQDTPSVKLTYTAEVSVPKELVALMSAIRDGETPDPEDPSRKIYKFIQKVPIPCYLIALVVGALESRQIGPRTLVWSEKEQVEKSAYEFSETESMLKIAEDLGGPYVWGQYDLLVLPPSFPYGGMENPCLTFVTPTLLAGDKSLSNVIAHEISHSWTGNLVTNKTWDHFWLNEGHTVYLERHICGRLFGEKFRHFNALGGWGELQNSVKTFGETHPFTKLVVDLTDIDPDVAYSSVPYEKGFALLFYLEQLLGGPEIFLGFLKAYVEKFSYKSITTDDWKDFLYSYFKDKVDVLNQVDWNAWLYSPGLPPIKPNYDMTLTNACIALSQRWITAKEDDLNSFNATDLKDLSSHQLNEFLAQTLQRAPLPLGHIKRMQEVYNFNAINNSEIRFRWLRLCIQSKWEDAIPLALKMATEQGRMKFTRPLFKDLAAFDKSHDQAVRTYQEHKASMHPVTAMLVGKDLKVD
Kind of experiment: Recombinant human LTA4 hydrolase assay for LTA4 hydrolase inhibitor activity. Type of experiment: biochemical. Particulars: recombinant human LTA4H, LTB4 quantified by enzyme-linked immunoassay; average of one to three determinations; read-out: IC50. The procedure, abridged: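 Sf-9-expressed rhLTA4H (36 ng) preincubated 10 min at rt with compound in 0.1 M potassium phosphate pH 7.4, 5 mg/mL fatty-acid-free BSA; 9 ng LTA4 free acid added, 10 min at rt in 225 μL. LTB4 measured by enzyme immunoassay; IC50 from 4-parameter fit, mean of one to three determinations.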

For `CN(C(=O)Oc1ccc(OCCN2CCC(O)(c3ccccc3)CC2)cc1)c1ccccc1` [Example 40, Methyl-phenyl-carbamic acid 4-[2-(4-hydroxy-4-phenyl-piperidin-1-yl)-ethoxy]-phenyl ester], the IC50 in experiment [1] was determined as 0.15 µM; in experiment [2] it was 0.073 µM.
On the same counts, the results for `O=C(O)C1CCN(CCc2ccc(OCCc3ccccc3)cc2)CC1` [Example 81, 1-[2-(4-Phenethyloxy-phenyl)-ethyl]-piperidine-4-carboxylic acid] are 0.181 µM and 0.019 µM.
In the same order, the values of `O=C(O)C1CCN(Cc2ccc(OCCc3ccccc3)cc2)CC1` [Example 96, 1-(4-Phenethyloxy-benzyl)-piperidine-4-carboxylic acid] are 0.007 µM and 0.01 µM.
As for `O=C1CCCN1C1CCN(Cc2ccc(OCCc3ccccc3)cc2)CC1` [Example 99, 1-[1-(4-Phenethyloxy-benzyl)-piperidin-4-yl]-pyrrolidin-2-one], the values for the IC50 in experiment [1] and in experiment [2] were 0.123 µM and 0.017 µM, respectively.
On the same counts, the results for `O=C(O)C1CCN(Cc2ccc(OCCCc3ccccc3)cc2)CC1` [Example 112, 1-[4-(3-Phenyl-propoxy)-benzyl]-piperidine-4-carboxylic acid] are 0.01 µM and 0.004 µM.
In the same order, the values of `O=C(O)C1CCN(CCOc2ccc(OCCCc3ccccc3)cc2)CC1` [Example 117, 1-{2-[4-(3-Phenyl-propoxy)-phenoxy]-ethyl}-piperidine-4-carboxylic acid] are 0.079 µM and 0.051 µM.

(Values after patent US20060223792A1, “Phenyl and pyridyl LTA4H modulators” (priority 2005, published 2006).)
